Entries after “also recorded” stand apart in the source; their conditions may differ.
Tests used:
[1] = target: PMEL17 TCR (TRAV21 TRBV7-3); test: SPR affinity analysis of PMEL17 TCR binding to HLA-A*0201-peptide complexes; design: species or system Human; details: SPR equilibrium analysis, triplicate; for PMEL17 TCR (TRAV21 TRBV7-3), affinity KD: biotinylated HLA-A*0201-peptide complex (500–600 RU) on streptavidin CM5 chip, 9–10 serial dilutions of soluble TCR
[2] = tested on: gp100 TCR-transduced CD8+ T-cells; test: 4-h 51Cr release cytotoxicity assay against peptide-pulsed T2 targets; assay type: cell-based, Human; details: 37 °C, effector/target ratio 5, 51Cr-labelled T2 cells, peptide titration, duplicate, Fig. 6B
[3] = target: gp100 TCR (TRAV17 TRBV19); test: SPR affinity analysis of gp100 TCR binding to HLA-A*0201-peptide complexes; design: species or system Human; details: SPR equilibrium analysis, triplicate; for gp100 TCR (TRAV17 TRBV19), affinity KD: biotinylated HLA-A*0201-peptide complex (500–600 RU) on streptavidin CM5 chip, 9–10 serial dilutions of soluble TCR
[4] = tested on: gp100 TCR-transduced CD8+ T-cells; test: MIP-1β production by ELISA after stimulation with peptide-pulsed T2 target cells; assay type: cell-based, Human; details: peptide titration; 6 × 10^4 T2 cells pulsed 1 h + 3 × 10^4 T-cells, overnight; ELISA of supernatant; duplicate; Fig. 6A
[5] = tested on: gp100-specific TCR-transfected human T-cells; details: cited from earlier work
Description: Thus, in order to study the individual contribution of the peptide residues invo ... || We also provide insight into the role of each residue in gp100^280–288 during TCR recognition by performing an alanine scan mutagenesis with two different gp100^280–288-specific αβTCRs. […] These observations are consisten ...

YLEPAPVTA [YLE-5A]
Kd ([1]; read-out: PMEL17 TCR (TRAV21 TRBV7-3), affinity KD, biotinylated HLA-A*0201-peptide complex on streptavidin CM5 chip): > 1000 µM
specific lysis of peptide-pulsed target cells [2]: no cytotoxic T lymphocyte-mediated lysis
Kd ([3]; read-out: gp100 TCR (TRAV17 TRBV19), affinity KD, biotinylated HLA-A*0201-peptide complex on streptavidin CM5 chip): > 1000 µM
MIP-1β production [4]: No MIP-1β production

YLAPGPVTA [YLE-3A]
PMEL17 TCR (TRAV21 TRBV7-3), affinity KD [1]: complete absence of measurable binding; also recorded: No binding
PMEL17 TCR (TRAV21 TRBV7-3), affinity KD ([1]; listed as A2-YLE-3A): completely abrogated binding
specific lysis of peptide-pulsed target cells [2]: no cytotoxic T lymphocyte-mediated lysis
gp100 TCR (TRAV17 TRBV19), affinity KD [3]: No binding
gp100 TCR (TRAV17 TRBV19), affinity KD ([3]; listed as A2-YLE-3A): completely abrogated binding
MIP-1β production [4]: No MIP-1β production
agonist activity for a different gp100-specific TCR [5]: null agonist
